What was measured:
Experiment in all cases: biochemical
Type in all cases: binding
[1] = molecular target: T1, SOCS6 (Homo sapiens, UniProt O14544); settings: primary screen, 10 μM; read-out: percent of DMSO vehicle control
T1 construct: made in house; host or cells: HEK293 (transient transfection), unpurified extract
T1 sequence (O14544 1-535): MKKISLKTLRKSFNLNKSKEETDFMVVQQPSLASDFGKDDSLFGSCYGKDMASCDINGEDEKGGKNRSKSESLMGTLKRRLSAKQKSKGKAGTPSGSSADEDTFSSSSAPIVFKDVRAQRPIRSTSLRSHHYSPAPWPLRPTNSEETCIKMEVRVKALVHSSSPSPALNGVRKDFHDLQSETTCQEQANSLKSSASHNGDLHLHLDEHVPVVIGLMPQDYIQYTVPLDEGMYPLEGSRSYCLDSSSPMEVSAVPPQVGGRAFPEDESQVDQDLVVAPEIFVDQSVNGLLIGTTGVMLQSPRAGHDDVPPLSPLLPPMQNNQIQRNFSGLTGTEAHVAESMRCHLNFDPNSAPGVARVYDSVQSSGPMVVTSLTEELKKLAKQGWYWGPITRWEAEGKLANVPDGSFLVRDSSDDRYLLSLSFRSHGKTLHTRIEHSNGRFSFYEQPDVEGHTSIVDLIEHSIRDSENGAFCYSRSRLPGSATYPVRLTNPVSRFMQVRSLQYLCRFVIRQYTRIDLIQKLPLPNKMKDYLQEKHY

[2] = molecular target: T2, APS (SH2B2) (Homo sapiens, UniProt O14492); settings: primary screen, 10 μM; read-out: percent of DMSO vehicle control
T2 construct: the DNA-tagged SH2 domain concentrations used in this study were <0.1 nM; made in house; host or cells: HEK293 (transient transfection; unpurified extract)
T2 sequence (O14492 417-515 limits assumed): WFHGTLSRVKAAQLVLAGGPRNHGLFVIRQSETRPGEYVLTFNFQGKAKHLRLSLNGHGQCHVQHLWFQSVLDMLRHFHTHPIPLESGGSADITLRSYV

[3] = molecular target: T3, TNS1 (Homo sapiens, UniProt Q9HBL0); settings: primary screen, 10 μM; read-out: percent of DMSO vehicle control
T3 construct: made in house; host or cells: HEK293 (transient transfection), unpurified extract
T3 sequence (Q9HBL0 whole entry): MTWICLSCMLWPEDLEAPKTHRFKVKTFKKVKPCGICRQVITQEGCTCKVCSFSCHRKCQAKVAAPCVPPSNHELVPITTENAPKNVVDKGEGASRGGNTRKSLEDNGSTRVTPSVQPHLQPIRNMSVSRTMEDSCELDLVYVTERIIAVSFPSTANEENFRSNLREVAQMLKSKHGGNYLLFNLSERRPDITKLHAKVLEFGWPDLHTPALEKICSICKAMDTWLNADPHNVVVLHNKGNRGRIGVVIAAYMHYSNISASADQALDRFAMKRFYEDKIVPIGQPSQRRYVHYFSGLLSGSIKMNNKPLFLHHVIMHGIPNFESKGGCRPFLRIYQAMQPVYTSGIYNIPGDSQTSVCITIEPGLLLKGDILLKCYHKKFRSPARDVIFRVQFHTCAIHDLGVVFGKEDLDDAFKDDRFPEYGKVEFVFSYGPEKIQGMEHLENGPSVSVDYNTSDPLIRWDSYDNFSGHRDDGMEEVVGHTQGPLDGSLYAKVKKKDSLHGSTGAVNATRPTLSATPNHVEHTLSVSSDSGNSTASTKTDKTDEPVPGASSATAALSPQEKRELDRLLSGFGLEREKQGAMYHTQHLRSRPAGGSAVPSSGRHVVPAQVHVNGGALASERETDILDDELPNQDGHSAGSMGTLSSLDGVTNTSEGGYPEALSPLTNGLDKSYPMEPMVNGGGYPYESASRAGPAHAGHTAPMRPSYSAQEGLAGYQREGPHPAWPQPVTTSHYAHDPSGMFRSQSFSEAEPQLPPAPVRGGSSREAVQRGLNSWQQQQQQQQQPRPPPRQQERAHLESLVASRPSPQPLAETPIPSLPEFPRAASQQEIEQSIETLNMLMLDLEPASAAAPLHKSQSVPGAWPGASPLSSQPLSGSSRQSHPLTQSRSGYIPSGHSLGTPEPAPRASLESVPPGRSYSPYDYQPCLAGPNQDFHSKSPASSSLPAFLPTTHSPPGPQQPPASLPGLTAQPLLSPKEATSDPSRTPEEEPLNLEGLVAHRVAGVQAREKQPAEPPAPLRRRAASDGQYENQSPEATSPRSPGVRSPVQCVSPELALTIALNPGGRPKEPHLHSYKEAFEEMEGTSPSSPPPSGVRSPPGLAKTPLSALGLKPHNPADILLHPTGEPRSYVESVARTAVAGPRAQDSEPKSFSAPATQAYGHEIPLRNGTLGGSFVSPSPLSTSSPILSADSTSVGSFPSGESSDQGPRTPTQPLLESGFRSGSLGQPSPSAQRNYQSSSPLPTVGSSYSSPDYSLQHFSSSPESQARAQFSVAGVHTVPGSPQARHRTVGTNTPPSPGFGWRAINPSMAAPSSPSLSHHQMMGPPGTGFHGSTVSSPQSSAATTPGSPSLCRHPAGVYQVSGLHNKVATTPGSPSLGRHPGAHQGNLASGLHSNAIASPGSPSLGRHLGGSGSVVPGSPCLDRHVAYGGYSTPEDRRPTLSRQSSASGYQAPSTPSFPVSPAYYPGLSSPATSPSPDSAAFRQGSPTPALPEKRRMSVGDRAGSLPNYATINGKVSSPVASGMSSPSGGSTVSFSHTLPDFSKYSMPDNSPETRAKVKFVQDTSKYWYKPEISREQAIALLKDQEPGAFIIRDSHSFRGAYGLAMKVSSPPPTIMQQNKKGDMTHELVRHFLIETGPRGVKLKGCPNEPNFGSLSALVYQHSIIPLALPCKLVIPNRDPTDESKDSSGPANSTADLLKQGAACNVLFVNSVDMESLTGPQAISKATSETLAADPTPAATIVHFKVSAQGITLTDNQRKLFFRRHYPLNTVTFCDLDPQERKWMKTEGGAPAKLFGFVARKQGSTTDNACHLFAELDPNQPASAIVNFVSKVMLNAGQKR

[4] = molecular target: T4, RASA1(SH2dom.N-term.) (Homo sapiens, UniProt P20936); settings: primary screen, 10 μM; read-out: percent of DMSO vehicle control
T4 construct: SH2dom.N-term. denotes SH2 domain closest to N-terminus of protein; made in house; host or cells: HEK293 (transient transfection), unpurified extract
T4 sequence (P20936 181-272 limits assumed): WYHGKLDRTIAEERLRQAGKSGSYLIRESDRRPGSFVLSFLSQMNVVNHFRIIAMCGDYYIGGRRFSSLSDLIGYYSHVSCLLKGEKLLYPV

[5] = molecular target: T5, FRK (Homo sapiens, UniProt P42685); settings: primary screen, 10 μM; read-out: percent of DMSO vehicle control
T5 construct: the DNA-tagged SH2 domain concentrations used in this study were <0.1 nM; made in house; host or cells: HEK293 (transient transfection; unpurified extract)
T5 sequence (P42685 116-208 limits assumed): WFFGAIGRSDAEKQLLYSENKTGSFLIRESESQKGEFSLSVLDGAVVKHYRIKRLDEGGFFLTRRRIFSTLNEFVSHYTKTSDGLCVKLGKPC

[6] = molecular target: T6, SH3BP2 (Homo sapiens, UniProt P78314); settings: primary screen, 10 μM; read-out: percent of DMSO vehicle control
T6 construct: made in house; host or cells: HEK293 (transient transfection), unpurified extract
T6 sequence (P78314 1-561): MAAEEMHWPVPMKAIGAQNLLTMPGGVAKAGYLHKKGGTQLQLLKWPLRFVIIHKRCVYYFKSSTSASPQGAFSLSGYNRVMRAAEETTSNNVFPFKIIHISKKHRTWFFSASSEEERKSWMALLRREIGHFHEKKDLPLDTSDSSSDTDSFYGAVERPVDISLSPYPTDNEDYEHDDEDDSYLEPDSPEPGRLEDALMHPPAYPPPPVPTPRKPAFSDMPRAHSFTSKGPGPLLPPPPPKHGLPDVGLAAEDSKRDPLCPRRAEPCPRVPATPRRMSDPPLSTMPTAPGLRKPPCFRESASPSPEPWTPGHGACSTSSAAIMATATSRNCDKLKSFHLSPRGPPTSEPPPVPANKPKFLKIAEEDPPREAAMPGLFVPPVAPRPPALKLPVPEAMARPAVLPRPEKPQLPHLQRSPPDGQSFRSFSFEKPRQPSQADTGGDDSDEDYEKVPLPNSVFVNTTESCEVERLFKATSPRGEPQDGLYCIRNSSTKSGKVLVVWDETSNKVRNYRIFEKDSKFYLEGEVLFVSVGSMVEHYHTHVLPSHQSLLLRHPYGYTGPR

[7] = molecular target: T7, SLAP2 (Homo sapiens, UniProt Q9H6Q3); settings: primary screen, 10 μM; read-out: percent of DMSO vehicle control
T7 construct: made in house; host or cells: HEK293 (transient transfection), unpurified extract
T7 sequence (Q9H6Q3 1-261): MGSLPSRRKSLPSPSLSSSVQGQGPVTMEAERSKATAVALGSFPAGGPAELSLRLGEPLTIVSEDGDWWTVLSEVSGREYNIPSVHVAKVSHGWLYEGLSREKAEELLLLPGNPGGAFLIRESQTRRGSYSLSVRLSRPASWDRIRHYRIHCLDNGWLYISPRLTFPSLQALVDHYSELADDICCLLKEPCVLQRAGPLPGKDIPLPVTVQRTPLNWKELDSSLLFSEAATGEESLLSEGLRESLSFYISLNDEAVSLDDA

[8] = molecular target: T8, TXK (Homo sapiens, UniProt P42681); settings: primary screen, 10 μM; read-out: percent of DMSO vehicle control
T8 construct: made in house; host or cells: HEK293 (transient transfection), unpurified extract
T8 sequence (P42681 1-527): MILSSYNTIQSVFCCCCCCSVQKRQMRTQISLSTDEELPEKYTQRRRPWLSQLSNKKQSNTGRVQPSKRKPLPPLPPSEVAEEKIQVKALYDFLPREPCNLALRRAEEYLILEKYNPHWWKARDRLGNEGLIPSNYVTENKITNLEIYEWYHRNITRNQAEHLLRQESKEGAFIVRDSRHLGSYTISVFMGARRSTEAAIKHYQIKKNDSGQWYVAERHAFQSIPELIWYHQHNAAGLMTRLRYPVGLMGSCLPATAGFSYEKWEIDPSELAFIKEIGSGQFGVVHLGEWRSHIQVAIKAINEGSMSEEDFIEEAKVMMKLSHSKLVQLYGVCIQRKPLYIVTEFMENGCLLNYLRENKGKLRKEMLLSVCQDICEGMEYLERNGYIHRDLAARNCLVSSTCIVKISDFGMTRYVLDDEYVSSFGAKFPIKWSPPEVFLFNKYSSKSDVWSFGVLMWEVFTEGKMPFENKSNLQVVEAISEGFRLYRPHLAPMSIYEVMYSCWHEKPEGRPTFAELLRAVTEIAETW

[9] = molecular target: T9, PTPN6(SH2dom.N-term.) (Homo sapiens, UniProt P29350)
T9 construct: SH2dom.N-term. denotes SH2 domain closest to N-terminus of protein; made in house; host or cells: HEK293 (transient transfection, unpurified extract)
T9 sequence (P29350 4-100 limits assumed): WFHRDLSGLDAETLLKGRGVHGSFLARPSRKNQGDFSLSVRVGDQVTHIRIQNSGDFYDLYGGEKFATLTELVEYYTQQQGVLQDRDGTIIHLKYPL

[10] = molecular target: T10, CRK (Homo sapiens, UniProt P46108); settings: primary screen, 10 μM; read-out: percent of DMSO vehicle control
T10 construct: the DNA-tagged SH2 domain concentrations used in this study were <0.1 nM; made in house; host or cells: HEK293 (transient transfection; unpurified extract)
T10 sequence (P46108 13-118 limits assumed): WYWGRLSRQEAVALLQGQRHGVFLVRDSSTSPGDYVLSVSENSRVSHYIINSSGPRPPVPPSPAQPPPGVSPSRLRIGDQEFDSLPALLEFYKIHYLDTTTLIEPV

[11] = molecular target: T11, PLCG1(SH2dom.C-term.) (Homo sapiens, UniProt P19174); settings: primary screen, 10 μM; read-out: percent of DMSO vehicle control
T11 construct: SH2dom.C-term. denotes SH2 domain closest to C-terminus of protein; made in house; host or cells: HEK293 (transient transfection, unpurified extract)
T11 sequence (P19174 668-756 limits assumed): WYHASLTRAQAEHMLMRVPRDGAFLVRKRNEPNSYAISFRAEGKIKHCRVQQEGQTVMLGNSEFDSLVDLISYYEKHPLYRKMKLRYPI

O=C(COc1ccc2cc(C(=O)Nc3ccccc3)ccc2c1)NCc1ccc(OP(=O)(O)O)c(OP(=O)(O)O)c1 [Stafib-1] showed a remaining activity at 10 µM [1] of 96.9 ± 12%, a remaining activity at 10 µM [2] of 64.6 ± 31.3% and a remaining activity at 10 µM [3] of 132%. It also gave a remaining activity at 10 µM [4] of 71.3 ± 8.8%, a remaining activity at 10 µM [5] of 65.3 ± 42.8% and a remaining activity at 10 µM [6] of 86 ± 3.2%. It also gave a remaining activity at 10 µM [7] of 90.4 ± 6.1%, a remaining activity at 10 µM [8] of 144% and a Kd ([9]; dose-response, read-out: KD) of 13 µM. For the same compound, the remaining activity at 10 µM ([9]; primary screen, 10 μM, read-out: percent of DMSO vehicle control) was 27.8 ± 4.2%, the remaining activity at 10 µM [10] was 90.2 ± 5.9% and the remaining activity at 10 µM [11] was 78.8 ± 17.8%.

— article PMC12951562, “SH2scan: Mapping SH2 Domain-Ligand Binding Selectivity for Inhibitors and Degraders” (Journal of Medicinal Chemistry, 2026)
